This note sets out measurements from ChEMBL document CHEMBL3739323, “Design, synthesis, and biological evaluation of novel quinazolinyl-diaryl urea derivatives as potential anticancer agents” (Eur J Med Chem, 2016).

The source made the active and inactive calls. The calls are words filed in the database; no cut-off is given here.

Assay [1] has as its system A549. Description: Antiproliferative activity against human A549 cells by MTT assay. The class given is functional, cell-based. (Tetrazolium assays rely on reduction of a dye to a coloured formazan, in cell work by metabolically active cells.)
A further assay relates to HepG2. The assay can be described thus: Antiproliferative activity against human HepG2 cells by MTT assay. It counts as functional, cell-based.
Assay [2] can be described thus: Antiproliferative activity against human MGC803 cells by MTT assay. It counts as functional, cell-based. To be noted: MGC-803.
Assay [3] has as its system A549. Description: Induction of apoptosis in human A549 cells assessed as early apoptotic cells at 10 uM after 48 hrs by Annexin-V/Propidium iodide dual staining based flow cytometric analysis (reference value: 3.53 +/- 0.89%). It counts as functional. On the technique in general: A flow cytometer gives signals particle by particle.
Assay [4] concerns A549. The assay can be described thus: Induction of apoptosis in human A549 cells assessed as viable cells at 10 uM after 6 hrs by Annexin-V-FITC/Propidium iodide staining based flow cytometric analysis (reference value: 95.48 +/- 2.03%). The class given is functional. To be noted: A549, 6 h, read-out: Activity.
The test system of assay [5] is A549. Description: Induction of apoptosis in human A549 cells assessed as viable cells at 10 uM after 48 hrs by Annexin-V-FITC/Propidium iodide staining based flow cytometric analysis (reference value: 92.46 +/- 4.23%). It counts as functional. The following applies: A549, 48 h, read-out: Activity.
Assay [6] relates to A549. Description: Induction of apoptosis in human A549 cells assessed as necrotic cells at 10 uM after 6 hrs by Annexin-V-FITC/Propidium iodide staining based flow cytometric analysis (reference value: 0.28 +/- 0.09%). The class given is functional.
For assay [7], the system named is A549. The assay can be described thus: Cell cycle arrest in human A549 cells assessed as accumulation at G0/G1 phase at 10 uM by propidium iodide staining based flow cytometric analysis (reference value: 63.82 +/- 2.66%). It counts as functional.
The test system of assay [8] is A549. Description: Induction of apoptosis in human A549 cells assessed as upregulation of caspase-8 expression at 10 uM after 48 hrs by Western blot analysis. The class given is functional, cell-based. (In general: A western blot detects proteins with antibodies after separation by electrophoresis.)
Assay [9] has as its system A549. Description: Induction of apoptosis in human A549 cells assessed as late apoptotic cells at 10 uM after 48 hrs by Annexin-V/Propidium iodide dual staining based flow cytometric analysis (reference value: 1.44 +/- 0.43%). It counts as functional.
The subject of assay [10] is A549. Description: Cell cycle arrest in human A549 cells assessed as accumulation at S phase at 10 uM by propidium iodide staining based flow cytometric analysis (reference value: 23.41 +/- 2.19%). It counts as functional.
Assay [11] deals with A549. The assay can be described thus: Induction of apoptosis in human A549 cells assessed as increase in ROS production at 10 uM after 12 hrs by DCF staining based luminescence spectrometric analysis. It counts as functional, cell-based.
The subject of assay [12] is A549. Description: Induction of apoptosis in human A549 cells assessed as early apoptotic cells at 10 uM after 6 hrs by Annexin-V-FITC/Propidium iodide staining based flow cytometric analysis (reference value: 3.83 +/- 0.49%). It counts as functional.
The test system of assay [13] is A549. The assay can be described thus: Induction of apoptosis in human A549 cells assessed as upregulation of caspase-3 expression at 10 uM after 48 hrs by Western blot analysis. The class given is functional, cell-based.
In assay [14] the test system is A549. The assay can be described thus: Cell cycle arrest in human A549 cells assessed as accumulation at G2/M phase at 10 uM by propidium iodide staining based flow cytometric analysis (reference value: 12.77 +/- 1.55%). It counts as functional.
Assay [15] has as its system A549. The assay can be described thus: Induction of apoptosis in human A549 cells assessed as late apoptotic cells at 10 uM after 6 hrs by Annexin-V-FITC/Propidium iodide staining based flow cytometric analysis (reference value: 0.41 +/- 0.19%). The class given is functional.
Assay [16] relates to A549. The assay can be described thus: Induction of apoptosis in human A549 cells assessed as necrotic cells at 10 uM after 48 hrs by Annexin-V/Propidium iodide dual staining based flow cytometric analysis (reference value: 2.57 +/- 0.39%). It counts as functional.
Assay [17] concerns the target RAF proto-oncogene serine/threonine-protein kinase (Homo sapiens) (UniProt P04049). To be noted: A549, 10 uM.
Description: Inhibition of C-Raf in human A549 cells at 10 uM after 48 hrs by Western blot analysis
In assay [18] the test system is A549. The assay can be described thus: Induction of apoptosis in human A549 cells assessed as downregulation of Bcl-2 expression at 10 uM after 48 hrs by Western blot analysis. It counts as functional, cell-based.
For assay [19], the system named is A549. Description: Induction of apoptosis in human A549 cells assessed as upregulation of Bax expression at 10 uM after 48 hrs by Western blot analysis. It counts as functional, cell-based.

Chain of RAF proto-oncogene serine/threonine-protein kinase (Homo sapiens) (P04049 whole entry): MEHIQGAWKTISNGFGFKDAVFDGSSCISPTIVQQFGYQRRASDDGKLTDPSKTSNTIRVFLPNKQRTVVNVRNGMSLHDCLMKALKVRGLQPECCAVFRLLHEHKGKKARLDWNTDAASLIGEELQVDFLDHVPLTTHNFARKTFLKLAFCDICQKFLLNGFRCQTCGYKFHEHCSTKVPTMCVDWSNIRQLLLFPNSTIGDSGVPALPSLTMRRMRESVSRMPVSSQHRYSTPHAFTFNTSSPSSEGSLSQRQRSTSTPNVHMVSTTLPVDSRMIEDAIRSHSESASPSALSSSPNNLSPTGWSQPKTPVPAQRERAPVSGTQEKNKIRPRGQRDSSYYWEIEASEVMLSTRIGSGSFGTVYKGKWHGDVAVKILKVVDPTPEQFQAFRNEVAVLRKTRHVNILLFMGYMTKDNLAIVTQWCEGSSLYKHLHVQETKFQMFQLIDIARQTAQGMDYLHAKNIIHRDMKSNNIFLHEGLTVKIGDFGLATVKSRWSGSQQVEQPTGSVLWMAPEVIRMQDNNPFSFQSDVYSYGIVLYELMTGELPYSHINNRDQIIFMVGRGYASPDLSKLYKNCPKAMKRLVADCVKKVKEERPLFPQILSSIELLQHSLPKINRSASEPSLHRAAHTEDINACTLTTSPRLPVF

As a reminder, the IC50 is the point on the concentration scale where inhibition reaches its midpoint. As to `COc1cc2ncnc(NCc3cccc(NC(=O)Nc4cccc(C)c4)c3)c2cc1OC`, the IC50 turned out to be 27.1 µM in the assay with A549 [1], 21.5 µM in the assay with HepG2 and 44.6 µM in assay [2].

As to `COc1cc2ncnc(NCc3cccc(NC(=O)Nc4ccc([N+](=O)[O-])cc4)c3)c2cc1OC`, the IC50 was more than 50 µM with A549 [1], 18.8 µM in the assay on HepG2 and 8.12 µM in assay [2].

Turning to `COc1ccc(NC(=O)Nc2cccc(CNc3ncnc4cc(OC)c(OC)cc34)c2)cc1`, the figures for the IC50 (in the assay on A549 [1]; in the assay with HepG2; in assay [2]) were 24.5 µM, more than 50 µM and 12.3 µM, respectively.

Consider `O=C(Nc1ccc([N+](=O)[O-])cc1)Nc1cccc(CNc2ncnc3ccccc23)c1`, for which the results for the IC50 (with A549 [1]; with HepG2; in assay [2]) were more than 50 µM, 24.6 µM and 9.42 µM, respectively.

As to `COC(=O)c1ccccc1NC(=O)Nc1cccc(CNc2ncnc3cc(OC)c(OC)cc23)c1`, the IC50 in the assay on A549 [1] was 29.3 µM; with HepG2 it was 31.6 µM; in [2], 8.98 µM.

Consider `Cc1cccc(NC(=O)Nc2cccc(CNc3ncnc4ccccc34)c2)c1`, for which the IC50 was 30.2 µM in the assay on A549 [1], more than 50 µM with HepG2 and 30.2 µM in [2].

On to `COc1cc2ncnc(NCc3cccc(NC(=O)Nc4ccccc4F)c3)c2cc1OC`, for which the IC50 in the assay on A549 [1] is 23.8 µM; in the assay with HepG2, 24.9 µM; in assay [2], 10.3 µM.

`COc1cc2ncnc(NCc3cccc(NC(=O)Nc4ccc(C)cc4)c3)c2cc1OC`: the IC50 in the assay with A549 [1] was 12.9 µM; in the assay on HepG2, more than 50 µM; in assay [2] it was 34.2 µM.

As for `O=C(Nc1ccc(Cl)cc1)Nc1cccc(CNc2ncnc3ccccc23)c1`, the values for the IC50 (in the assay with A549 [1]; in the assay on HepG2; in assay [2]) were more than 50 µM, more than 50 µM and 26.4 µM, respectively.

Turning to `COc1cc2ncnc(NCc3cccc(NC(=O)Nc4ccccc4Cl)c3)c2cc1OC`, the IC50 was determined as 15.2 µM with A549 [1], 25.5 µM in the assay on HepG2 and 30.2 µM in assay [2].

`O=C(Nc1cccc(Cl)c1)Nc1cccc(CNc2ncnc3ccccc23)c1`: the IC50 in the assay with A549 [1] was more than 50 µM; in the assay on HepG2, more than 50 µM; in assay [2] it was 19.2 µM.

`COc1cc2ncnc(NCc3cccc(NC(=O)Nc4ccc(F)cc4)c3)c2cc1OC`: the IC50 in the assay with A549 [1] was found to be 16.9 µM; with HepG2, 36.6 µM; in assay [2], 42.1 µM.

As for `COc1cc2ncnc(Nc3ccc(F)c(Cl)c3)c2cc1OCCCN1CCOCC1` [GEFITINIB], the Activity was 1% in the assay with A549 [3]; 0.94% in the assay on A549 [6]; 92.35% in the assay on A549 [7]; 4.92% in the assay on A549 [9]; 3.61% in the assay with A549 [10]; 5.81% in the assay with A549 [12]. Besides, the Activity with A549 [14] is listed as 4.04%; in the assay on A549 [15], 5.27%; with A549 [16] it was 11%. For the same compound, the figures for the viability at 10 µM in the assay on A549 [4] and in the assay with A549 [5] were 88% and 83.1%, respectively. Besides, the result in the assay on A549 [8], in the assay on A549 [11] and in the assay on A549 [13] was Active.

For `COc1cc2ncnc(NCc3cccc(NC(=O)Nc4cccc(Cl)c4)c3)c2cc1OC`, the IC50 with A549 [1] is 22.7 µM; with HepG2, 35.9 µM; in assay [2], more than 50 µM.

On to `Cc1ccc(NC(=O)Nc2cccc(CNc3ncnc4ccccc34)c2)cc1`, for which the IC50 in the assay on A549 [1] was 24.9 µM; in the assay with HepG2, more than 50 µM; in assay [2], 31.2 µM.

Consider `COc1cc2ncnc(NCc3cccc(NC(=O)Nc4cccc(C(F)(F)F)c4)c3)c2cc1OC`, for which the IC50 in the assay with A549 [1] is 35.3 µM; in the assay on HepG2, 34.2 µM; in [2] it was more than 50 µM.

For `O=C(Nc1ccccc1)Nc1cccc(CNc2ncnc3ccccc23)c1`, the results for the IC50 (with A549 [1]; with HepG2; in [2]) were 18.4 µM, more than 50 µM and 13.2 µM, respectively.

Consider `O=C(Nc1cccc(CNc2ncnc3ccccc23)c1)Nc1cccc(C(F)(F)F)c1`, for which the IC50 in the assay with A549 [1] was 44.2 µM; in the assay on HepG2, 40 µM; in assay [2], more than 50 µM.

For `COc1ccccc1NC(=O)Nc1cccc(CNc2ncnc3cc(OC)c(OC)cc23)c1`, the IC50 in the assay on A549 [1] was determined as 15.2 µM; with HepG2, 27.2 µM; in assay [2], 7.71 µM.

Turning to `COc1cc2ncnc(NCc3cccc(NC(=O)Nc4ccccc4C)c3)c2cc1OC`, the IC50 with A549 [1] is 21.4 µM; in the assay with HepG2 it was more than 50 µM; in assay [2], more than 50 µM.

As to `O=C(Nc1cccc(CNc2ncnc3ccccc23)c1)Nc1ccccc1F`, the IC50 in the assay with A549 [1] was 26.1 µM; with HepG2 it was 17.5 µM; in [2], 33.4 µM.

With `O=C(Nc1cccc(CNc2ncnc3ccccc23)c1)Nc1ccccc1Cl`, the concentration for half-maximal inhibition (IC50) in the assay with A549 [1] is 18 µM; with HepG2, more than 50 µM; in assay [2], more than 50 µM.

Regarding `CNC(=O)c1cc(Oc2ccc(NC(=O)Nc3ccc(Cl)c(C(F)(F)F)c3)cc2)ccn1` [SORAFENIB], the inhibition result in assay [17] was “Active”. Also, the figures for the IC50 (in the assay on A549 [1]; with HepG2; in assay [2]) were 13.6 µM, 9.14 µM and 7.99 µM, respectively. Further, the Activity was found to be 0.9% in the assay with A549 [3]; 0.7% in the assay on A549 [6]; 90.27% in the assay on A549 [7]; 6.38% in the assay with A549 [9]; 5.79% with A549 [10]; 9.33% in the assay on A549 [12]. The Activity with A549 [14] came out at 3.93%; in the assay with A549 [15] it was 6.23%; in the assay with A549 [16], 19.9%. Moreover, the viability at 10 µM in the assay on A549 [4] came to 83.7%; with A549 [5], 72.8%. Further, the result in the assay with A549 [8], in the assay on A549 [11], with A549 [18], in the assay with A549 [13] and with A549 [19] was Active.

In the case of `COc1ccccc1NC(=O)Nc1cccc(CNc2ncnc3ccccc23)c1`, the values for the IC50 (in the assay on A549 [1]; in the assay on HepG2; in assay [2]) were 30.8 µM, 17.4 µM and 39.3 µM, respectively.

As for `Cc1ccccc1NC(=O)Nc1cccc(CNc2ncnc3ccccc23)c1`, the results for the IC50 (in the assay with A549 [1]; with HepG2; in assay [2]) were 40.2 µM, more than 50 µM and more than 50 µM, respectively.

As to `COC(=O)c1ccccc1NC(=O)Nc1cccc(CNc2ncnc3ccccc23)c1`, the results for the IC50 (with A549 [1]; with HepG2; in assay [2]) were 29.4 µM, more than 50 µM and 9.63 µM, respectively.

With `COc1cc2ncnc(NCc3cccc(NC(=O)Nc4ccccc4)c3)c2cc1OC`, the IC50 stood at 17.1 µM in the assay on A549 [1], 19.7 µM in the assay on HepG2 and 10 µM in assay [2].

Consider `CC(C)(C)c1ccc(NC(=O)Nc2cccc(CNc3ncnc4ccccc34)c2)cc1`, for which the IC50 with A549 [1] is 17.9 µM; in the assay with HepG2, 16.9 µM; in assay [2], 7.47 µM.

Turning to `COc1cc2ncnc(NCc3cccc(NC(=O)Nc4ccc(Cl)cc4)c3)c2cc1OC`, the results for the IC50 (in the assay with A549 [1]; with HepG2; in assay [2]) were 30.4 µM, more than 50 µM and 44.2 µM, respectively.

With `COc1ccc(NC(=O)Nc2cccc(CNc3ncnc4ccccc34)c2)cc1`, the IC50 with A549 [1] is 29.3 µM; with HepG2, more than 50 µM; in assay [2] it was 27.3 µM.

For `O=C(Nc1ccc(F)cc1)Nc1cccc(CNc2ncnc3ccccc23)c1`, the IC50 in the assay on A549 [1] came to 21 µM; in the assay on HepG2 it was 41.5 µM; in assay [2], 44.3 µM.
